Measurements: patent publication US10160726B2, “Quinolone derivatives as antibacterials” (priority 2014, dated 2018)
Converted amounts (≈) assume the structure as drawn. Like-named read-outs stand apart in the source and are kept apart here.

Assays:
Assay type in all cases: cell-based
[1] = system: S. aureus ATCC 29213 (NB01001); test: MIC, broth microdilution (CLSI); conditions: Staphylococcus aureus, read-out: Antibacterial activity (MIC) NB01001
[2] = system: P. aeruginosa NB52019 (wild-type PAO1); test: MIC, broth microdilution (CLSI)
[3] = system: E. coli ATCC 25922 (NB27001); test: MIC, broth microdilution (CLSI); conditions: Escherichia coli, read-out: Antibacterial activity (MIC) NB27001
[4] = system: S. aureus NB01006-AVR005 (gyrA S84L, grlA S80F, grlB E471K); test: microbe, parasite or virus in culture; conditions: Staphylococcus aureus, 20 h, read-out: Antibacterial activity (MIC) NB01006-AVR005
[5] = system: P. aeruginosa NB52023 (efflux deficient K1542, ΔmexX ΔmexB); test: microbe, parasite or virus in culture; conditions: Pseudomonas aeruginosa, 20 h, read-out: Antibacterial activity (MIC) NB52023
[6] = system: E. coli NB27177 (efflux deficient CGSC 11430, ΔtolC732::kan); test: microbe, parasite or virus in culture; conditions: Escherichia coli, 20 h, read-out: Antibacterial activity (MIC) NB27177
[7] = system: P. aeruginosa NB52023-CDK0006 (gyrA T83I, parC S87L); test: microbe, parasite or virus in culture; conditions: Pseudomonas aeruginosa, 20 h, read-out: Antibacterial activity (MIC) NB52023-CDK0006
[8] = ATCC29213, S. aureus ATCC 29213, 35° C., 20 hours
[9] = Pseudomonas aeruginosa, PAO1, 20 h; read-out: Antibacterial activity (MIC) NB52019
[10] = ATCC25922, E. coli ATCC 25922, 35° C., 20 hours

Row | Compound | MIC [1, 8] [µg/mL] | MIC [2, 9] [µg/mL] | MIC [3, 10] [µg/mL] | MIC [4] [µg/mL] | MIC [5] [µg/mL] | MIC [6] [µg/mL] | MIC [7] [µg/mL] | MIC ([2]; Pseudomonas aeruginosa; P. aeruginosa wild-type PAO1; 35° C., 20 hours; read-out: Antibacterial activity (MIC) NB52019) [µg/mL] | MIC ([1]; ATCC29213, 20 h) [µg/mL] | MIC ([2]; Pseudomonas aeruginosa, PAO1, 20 h, read-out: Antibacterial activity (MIC) NB52019) [µg/mL] | MIC ([3]; ATCC25922, 20 h) [µg/mL]
1 | Cc1c(N2CC[C@@H]([C@H](C)N)C2)c(F)cc2c(/C=C/C(=O)O)cc(=O)n(C3CC3)c12 [Example 22, (E)-3-(7-((R)-3-((S)-1-aminoethyl)pyrrolidin-1-yl)-1-cyclopropyl-6-fluoro-8-methyl-2-oxo-1,2-dihydroquinolin-4-yl)acrylic acid] | 8 (≈ 20 µM) | > 32 | 32 (≈ 80.1 µM) | 8 (≈ 20 µM) | > 32 | 8 (≈ 20 µM) | > 32 |  |  |  | 
2 | CCc1cc(=O)n(C2CC2)c2c(C)c(N3CC[C@@H]([C@H](C)N)C3)c(F)cc12 [Example 24, 7-((R)-3-((S)-1-aminoethyl)pyrrolidin-1-yl)-1-cyclopropyl-4-ethyl-6-fluoro-8-methylquinolin-2(1H)-one] | 0.06 (≈ 0.168 µM) | > 32 | 8 (≈ 22.4 µM) | 0.06 (≈ 0.168 µM) | > 32 | 0.06 (≈ 0.168 µM) | > 32 |  |  |  | 
3 | COC(=O)C#Cc1cc(=O)n(C2CC2)c2c(C)c(N3CC[C@@H]([C@H](C)N)C3)c(F)cc12 [Example 26, Methyl 3-(7-((R)-3-((S)-1-aminoethyl)pyrrolidin-1-yl)-1-cyclopropyl-6-fluoro-8-methyl-2-oxo-1,2-dihydroquinolin-4-yl)propiolate] | 1 (≈ 2.43 µM) | > 32 | 32 (≈ 77.8 µM) | 0.25 (≈ 0.608 µM) | 16 (≈ 38.9 µM) | 1 (≈ 2.43 µM) | 32 (≈ 77.8 µM) |  |  |  | 
4 | Cc1c(C#N)c2cc(F)c(N3CC[C@@H]([C@H](C)N)C3)c(C)c2n(C2CC2)c1=O [Example 28, 7-((R)-3-((S)-1-aminoethyl)pyrrolidin-1-yl)-1-cyclopropyl-6-fluoro-3,8-dimethyl-2-oxo-1,2-dihydroquinoline-4-carbonitrile] | < 0.03 | 16 (≈ 43.4 µM) | 2 (≈ 5.43 µM) | < 0.03 | 2 (≈ 5.43 µM) | < 0.03 | 0.5 (≈ 1.36 µM) |  |  |  | 
5 | Cc1c(N2CC[C@H](CN)C2)c(F)cc2c(C#N)cc(=O)n(C3CC3)c12 [Example 29, (R)-7-(3-(aminomethyl)pyrrolidin-1-yl)-1-cyclopropyl-6-fluoro-8-methyl-2-oxo-1,2-dihydroquinoline-4-carbonitrile] | 0.125 (≈ 0.367 µM) | 8 (≈ 23.5 µM) | 1 (≈ 2.94 µM) | 0.125 (≈ 0.367 µM) | 2 (≈ 5.88 µM) | 0.03 (≈ 0.0881 µM) | 4 (≈ 11.8 µM) |  |  |  | 
6 | Cc1c(N2CC[C@@H](CN)C2)c(F)cc2c(C#N)cc(=O)n(C3CC3)c12 [Example 31, (S)-7-(3-(aminomethyl)pyrrolidin-1-yl)-1-cyclopropyl-6-fluoro-8-methyl-2-oxo-1,2-dihydroquinoline-4-carbonitrile] | 0.06 (≈ 0.176 µM) | 8 (≈ 23.5 µM) | 2 (≈ 5.88 µM) | 0.06 (≈ 0.176 µM) | 2 (≈ 5.88 µM) | < 0.03 | 4 (≈ 11.8 µM) |  |  |  | 
7 | Cc1c(N2CCNCC2)c(F)cc2c(C#N)cc(=O)n(C3CC3)c12 [Example 32, 1-cyclopropyl-6-fluoro-8-methyl-2-oxo-7-(piperazin-1-yl)-1,2-dihydroquinoline-4-carbonitrile] | 4 (≈ 12.3 µM) |  | 4 (≈ 12.3 µM) | 2 (≈ 6.13 µM) | 16 (≈ 49 µM) | 0.125 (≈ 0.383 µM) | 32 (≈ 98 µM) | 32 (≈ 98 µM) |  |  | 
8 | CCOC(=O)c1cc(=O)n(C2CC2)c2c(C)c(N3CC[C@@H]([C@H](C)N)C3)c(F)cc12 [Example 35, ethyl 7-((R)-3-((S)-1-aminoethyl)pyrrolidin-1-yl)-1-cyclopropyl-6-fluoro-8-methyl-2-oxo-1,2-dihydroquinoline-4-carboxylate] | 0.06 (≈ 0.149 µM) | 8 (≈ 19.9 µM) | 4 (≈ 9.96 µM) | 0.06 (≈ 0.149 µM) | 8 (≈ 19.9 µM) | < 0.03 | 8 (≈ 19.9 µM) |  |  |  | 
9 | Cc1c(N2CC[C@@H]([C@H](C)N)C2)c(F)cc2c(N)cc(=O)n(C3CC3)c12 [Example 36, 4-amino-7-((R)-3-((S)-1-aminoethyl)pyrrolidin-1-yl)-1-cyclopropyl-6-fluoro-8-methylquinolin-2(1H)-one] | 2 (≈ 5.81 µM) | > 16 | 16 (≈ 46.5 µM) | 1 (≈ 2.9 µM) | 16 (≈ 46.5 µM) | 1 (≈ 2.9 µM) | > 16 |  |  |  | 
10 | Cc1c(N2CC[C@@H]([C@H](C)N)C2)c(F)cc2c(NS(C)(=O)=O)cc(=O)n(C3CC3)c12 [Example 37, N-(7-((R)-3-((S)-1-aminoethyl)pyrrolidin-1-yl)-1-cyclopropyl-6-fluoro-8-methyl-2-oxo-1,2-dihydroquinolin-4-yl)methanesulfonamide] | 8 (≈ 18.9 µM) | 32 (≈ 75.7 µM) | 32 (≈ 75.7 µM) | 16 (≈ 37.9 µM) | > 32 | 4 (≈ 9.47 µM) | > 32 |  |  |  | 
11 | Cc1c(N2CC[C@@H]([C@H](C)N)C2)c(F)cc2c(-c3noc(=O)[nH]3)cc(=O)n(C3CC3)c12 [Example 38, 3-(7-((R)-3-((S)-1-aminoethyl)pyrrolidin-1-yl)-1-cyclopropyl-6-fluoro-8-methyl-2-oxo-1,2-dihydroquinolin-4-yl)-1,2,4-oxadiazol-5(4H)-one] | 4 (≈ 9.67 µM) | > 32 | 32 (≈ 77.4 µM) | 4 (≈ 9.67 µM) | 32 (≈ 77.4 µM) | 2 (≈ 4.84 µM) | > 32 |  |  |  | 
12 | Cc1c(N2CC[C@@H]([C@H](C)N)C2)c(F)cc2c(C(=N)NO)cc(=O)n(C3CC3)c12 [Example 40, 7-((R)-3-((S)-1-aminoethyl)pyrrolidin-1-yl)-1-cyclopropyl-6-fluoro-N-hydroxy-8-methyl-2-oxo-1,2-dihydroquinoline-4-carboximidamide] | 4 (≈ 10.3 µM) | 16 (≈ 41.3 µM) | 4 (≈ 10.3 µM) | 4 (≈ 10.3 µM) | 4 (≈ 10.3 µM) | 0.5 (≈ 1.29 µM) | 8 (≈ 20.6 µM) |  |  |  | 
13 | Cc1c(N2CC[C@@H]([C@H](C)N)C2)c(F)cc2c(C3=NOS(=O)N3)cc(=O)n(C3CC3)c12 (stereo partly drawn) [Example 41, 7-((R)-3-((S)-1-aminoethyl)pyrrolidin-1-yl)-1-cyclopropyl-6-fluoro-8-methyl-4-(2-oxido-3H-1,2,3,5-oxathiadiazol-4-yl)quinolin-2(1H)-one] | 0.5 (≈ 1.15 µM) | 16 (≈ 36.9 µM) | 4 (≈ 9.23 µM) | 0.5 (≈ 1.15 µM) | 4 (≈ 9.23 µM) | 0.125 (≈ 0.288 µM) | 8 (≈ 18.5 µM) |  |  |  | 
14 | Cc1c(N2CC[C@@H]([C@H](C)N)C2)c(F)cc2c(Cl)cc(=O)n(C3CC3)c12 [Example 44, 7-((R)-3-((S)-1-aminoethyl)pyrrolidin-1-yl)-4-chloro-1-cyclopropyl-6-fluoro-8-methylquinolin-2(1H)-one] | 0.06 (≈ 0.165 µM) | 8 (≈ 22 µM) | 2 (≈ 5.5 µM) | 0.03 (≈ 0.0824 µM) | 4 (≈ 11 µM) | 0.03 (≈ 0.0824 µM) | 8 (≈ 22 µM) |  |  |  | 
15 | CC(=O)NCc1cc(=O)n(C2CC2)c2c(C)c(N3CC[C@@H]([C@H](C)N)C3)c(F)cc12 [Example 46, N-((7-((R)-3-((S)-1-aminoethyl)pyrrolidin-1-yl)-1-cyclopropyl-6-fluoro-8-methyl-2-oxo-1,2-dihydroquinolin-4-yl)methyl)acetamide] | 8 (≈ 20 µM) | 32 (≈ 79.9 µM) | 32 (≈ 79.9 µM) | 2 (≈ 4.99 µM) | > 32 | 2 (≈ 4.99 µM) | > 32 |  |  |  | 
16 | Cc1c(N2CC[C@@H]([C@H](C)N)C2)c(F)cc2c(CO)cc(=O)n(C3CC3)c12 [Example 47, 7-((R)-3-((S)-1-aminoethyl)pyrrolidin-1-yl)-1-cyclopropyl-6-fluoro-4-(hydroxymethyl)-8-methylquinolin-2(1H)-one] | 0.25 (≈ 0.696 µM) | 16 (≈ 44.5 µM) | 16 (≈ 44.5 µM) | 0.25 (≈ 0.696 µM) | 4 (≈ 11.1 µM) | 0.25 (≈ 0.696 µM) | 8 (≈ 22.3 µM) |  |  |  | 
17 | COCc1cc(=O)n(C2CC2)c2c(C)c(N3CC[C@@H]([C@H](C)N)C3)c(F)cc12 [Example 48, 7-((R)-3-((S)-1-aminoethyl)pyrrolidin-1-yl)-1-cyclopropyl-6-fluoro-4-(methoxymethyl)-8-methylquinolin-2(1H)-one] | 0.125 (≈ 0.335 µM) | 32 (≈ 85.7 µM) | 8 (≈ 21.4 µM) | 0.125 (≈ 0.335 µM) | 16 (≈ 42.8 µM) | 0.06 (≈ 0.161 µM) | 16 (≈ 42.8 µM) |  |  |  | 
18 | Cc1c(N2CC[C@@H]([C@H](C)N)C2)c(F)cc2c(OCCN(C)C)cc(=O)n(C3CC3)c12 [Example 49, 7-((R)-3-((S)-1-aminoethyl)pyrrolidin-1-yl)-1-cyclopropyl-4-(2-(dimethylamino)ethoxy)-6-fluoro-8-methylquinolin-2(1H)-one] |  |  |  | 0.25 (≈ 0.6 µM) | 4 (≈ 9.6 µM) | 0.06 (≈ 0.144 µM) | 8 (≈ 19.2 µM) |  | 0.125 (≈ 0.3 µM) | 8 (≈ 19.2 µM) | 1 (≈ 2.4 µM)
19 | CC(=O)N[C@@H](C)[C@@H]1CCN(c2c(F)cc3c(OCCN(C)C)cc(=O)n(C4CC4)c3c2C)C1 [Example 50, N—((S)-1-((R)-1-(1-cyclopropyl-4-(2-(dimethylamino)ethoxy)-6-fluoro-8-methyl-2-oxo-1,2-dihydroquinolin-7-yl)pyrrolidin-3-yl)ethyl)acetamide] | 1 (≈ 2.18 µM) | > 32 | 32 (≈ 69.8 µM) | 2 (≈ 4.36 µM) | > 32 | 0.125 (≈ 0.273 µM) | > 32 |  |  |  | 
